# Reference: patent US6353006B1, “Substituted 2-arylimino heterocycles and compositions containing them, for use as progesterone receptor binding agents” (Bayer Corporation, priority 1999, dated 2002)
row,SMILES,melting point [°C]
1,"CCc1cc(C(=O)O)ccc1N=C1SCC2(CCCC2)N1C1CCCC1 [Entry 253, 2-(4-carboxy-2-ethylphenylimino)-1-cyclopentyl-3-thia-1-azaspiro[4.4]nonane]",208 to 209
2,"CCc1cc(C(C)=O)ccc1N=C1SCC2(CCCC2)N1C1CCCC1 [Entry 255, 2-(4-acetyl-2-ethylphenylimino)-1-cyclopentyl-3-thia-1-azaspiro[4.4]nonane]",114 to 115
3,"CCc1cc(/C=C/[N+](=O)[O-])ccc1N=C1SCC2(CCCC2)N1C1CCCC1 [Entry 269, 2-(2-ethyl-4-((1E)-2-nitrovinyl)phenylimino)-1-cyclopentyl-3-thia-1-azaspiro[4.4]nonane]",141 to 142
4,"CCc1cc(C=C(C#N)C#N)ccc1N=C1SCC2(CCCC2)N1C1CCCC1 [Entry 271, 2-(2-ethyl-4-(2,2-dicyanovinyl)phenylimino)-1-cyclopentyl-3-thia-1-azaspiro[4.4]nonane]",135 to 136

# The remaining lines, values ahead:
row,melting point [°C],SMILES
1,152,"Cc1cc([N+](=O)[O-])ccc1N=C1SC(=O)CN1CC(C)C [Entry 310, 2-(2-methyl-4-nitrophenylimino)-3-isobutyl-1,3-thiazolidin-5-one]"
2,112 to 114,"CCc1cc(C#N)ccc1N=C1OCC(C)(C)N1C1CCCC1 [Entry 319, 2-(4-cyano-2-ethylphenylimino)-3-cyclopentyl-4,4-dimethyl-1,3-oxazolidine]"
